# Legend:
# Assay type in all cases: in vivo
# Conditions in all cases: 250 g/h, evaluated after 13 days
# [1] = test system: Echinochloa crus-galli (ECHCG); experiment: Glasshouse herbicide test, pre-emergence application
# Protocol: (§1) Seeds of a variety of test species are sown in standard soil in pots (Lolium perenne (LOLPE), Setaria faberi (SETFA), Echinochloa crus-galli (ECHCG), Avena fatua (AVEFA)). After cultivation for one day (pre-emergence) or after 8 days cultivation (post-emergence) under controlled conditions in a glasshouse (at 24/16° C., day/night; 14 hours light; 65% humidity), the plants are sprayed with an aqueous spray solution derived from the formulation of the technical active ingredient in acetone/water (50:50) solution containing 0.5% Tween 20 (polyoxyethelyene sorbitan monolaurate, CAS RN 9005-64-5). Compounds are applied at 250 g/h. The test plants are then grown in a glasshouse under controlled conditions in a glasshouse (at 24/16° C., day/night; 14 hours light; 65% humidity) and watered twice daily. After 13 days for pre and post-emergence, the test is evaluated for the percentage damage caused to the plant. The biological activities are shown in the following table on a five point scale (5=80-100%; 4=60-79%; 3=40-59%; 2=20-39%; 1=0-19%).
# Setaria faberi (SETFA) [2] = experiment: as above
# Protocol: as §1
# Avena fatua (AVEFA) [3] = experiment: as above
# Protocol: as §1
# Lolium perenne (LOLPE) [4] = experiment: as above
# Protocol: as §1
# [5] = test system: Echinochloa crus-galli (ECHCG); experiment: Glasshouse herbicide test, post-emergence application
# Protocol: as §1
# Setaria faberi (SETFA) [6] = experiment: as above
# Protocol: as §1
# Avena fatua (AVEFA) [7] = experiment: as above
# Protocol: as §1
# Lolium perenne (LOLPE) [8] = experiment: as above
# Protocol: as §1
compound,measurement,setting,value
CC#Cc1cc(Cl)c(C2C(=O)CC3(CC2=O)CN(C(=O)c2ccccc2)C3)c(OC)c1 [Compound 1.201],"percentage damage caused to the plant, five point scale, ECHCG",[1],5 (5=80-100%)
same,"percentage damage caused to the plant, five point scale, SETFA",Setaria faberi (SETFA) [2],5 (5=80-100%)
same,"percentage damage caused to the plant, five point scale, AVEFA",Avena fatua (AVEFA) [3],5 (5=80-100%)
same,"percentage damage caused to the plant, five point scale, LOLPE",Lolium perenne (LOLPE) [4],5 (5=80-100%)
same,"percentage damage caused to the plant, five point scale, ECHCG",[5],5 (5=80-100%)
same,"percentage damage caused to the plant, five point scale, SETFA",Setaria faberi (SETFA) [6],5 (5=80-100%)
same,"percentage damage caused to the plant, five point scale, AVEFA",Avena fatua (AVEFA) [7],5 (5=80-100%)
same,"percentage damage caused to the plant, five point scale, LOLPE",Lolium perenne (LOLPE) [8],5 (5=80-100%)
CC#Cc1cc(Cl)c(C2C(=O)CC3(CC2=O)CN(C(=O)C(C)(C)C)C3)c(OC)c1 [Compound 1.202],"percentage damage caused to the plant, five point scale, ECHCG",[1],5 (5=80-100%)
same,"percentage damage caused to the plant, five point scale, SETFA",Setaria faberi (SETFA) [2],5 (5=80-100%)
same,"percentage damage caused to the plant, five point scale, AVEFA",Avena fatua (AVEFA) [3],5 (5=80-100%)
same,"percentage damage caused to the plant, five point scale, LOLPE",Lolium perenne (LOLPE) [4],5 (5=80-100%)
same,"percentage damage caused to the plant, five point scale, ECHCG",[5],5 (5=80-100%)
same,"percentage damage caused to the plant, five point scale, SETFA",Setaria faberi (SETFA) [6],5 (5=80-100%)
same,"percentage damage caused to the plant, five point scale, AVEFA",Avena fatua (AVEFA) [7],5 (5=80-100%)
same,"percentage damage caused to the plant, five point scale, LOLPE",Lolium perenne (LOLPE) [8],5 (5=80-100%)
CC#Cc1cc(C)c(C2C(=O)CC3(CC2=O)CN(C(=O)NC(=O)c2ccccn2)C3)c(C)c1 [Compound 1.011],"percentage damage caused to the plant, five point scale, ECHCG",[1],2 (2=20-39%)
same,"percentage damage caused to the plant, five point scale, SETFA",Setaria faberi (SETFA) [2],3 (3=40-59%)
same,"percentage damage caused to the plant, five point scale, AVEFA",Avena fatua (AVEFA) [3],1 (1=0-19%)
same,"percentage damage caused to the plant, five point scale, LOLPE",Lolium perenne (LOLPE) [4],2 (2=20-39%)
same,"percentage damage caused to the plant, five point scale, ECHCG",[5],3 (3=40-59%)
same,"percentage damage caused to the plant, five point scale, SETFA",Setaria faberi (SETFA) [6],5 (5=80-100%)
same,"percentage damage caused to the plant, five point scale, AVEFA",Avena fatua (AVEFA) [7],3 (3=40-59%)
same,"percentage damage caused to the plant, five point scale, LOLPE",Lolium perenne (LOLPE) [8],3 (3=40-59%)
CC#Cc1cc(C)c(C2C(=O)CC3(CC2=O)CN(C(=O)CC#N)C3)c(OC)c1 [Compound 1.023],"percentage damage caused to the plant, five point scale, ECHCG",[1],1 (1=0-19%)
same,"percentage damage caused to the plant, five point scale, SETFA",Setaria faberi (SETFA) [2],3 (3=40-59%)
same,"percentage damage caused to the plant, five point scale, AVEFA",Avena fatua (AVEFA) [3],2 (2=20-39%)
same,"percentage damage caused to the plant, five point scale, LOLPE",Lolium perenne (LOLPE) [4],3 (3=40-59%)
same,"percentage damage caused to the plant, five point scale, ECHCG",[5],5 (5=80-100%)
same,"percentage damage caused to the plant, five point scale, SETFA",Setaria faberi (SETFA) [6],5 (5=80-100%)
same,"percentage damage caused to the plant, five point scale, AVEFA",Avena fatua (AVEFA) [7],5 (5=80-100%)
same,"percentage damage caused to the plant, five point scale, LOLPE",Lolium perenne (LOLPE) [8],5 (5=80-100%)
CC#Cc1cc(C)c(C2C(=O)CC3(CC2=O)CN(C(=O)CC#N)C3)c(C)c1 [Compound 1.012],"percentage damage caused to the plant, five point scale, ECHCG",[1],5 (5=80-100%)
same,"percentage damage caused to the plant, five point scale, SETFA",Setaria faberi (SETFA) [2],5 (5=80-100%)
same,"percentage damage caused to the plant, five point scale, AVEFA",Avena fatua (AVEFA) [3],5 (5=80-100%)
same,"percentage damage caused to the plant, five point scale, LOLPE",Lolium perenne (LOLPE) [4],5 (5=80-100%)
same,"percentage damage caused to the plant, five point scale, ECHCG",[5],5 (5=80-100%)
same,"percentage damage caused to the plant, five point scale, SETFA",Setaria faberi (SETFA) [6],5 (5=80-100%)
same,"percentage damage caused to the plant, five point scale, AVEFA",Avena fatua (AVEFA) [7],4 (4=60-79%)
same,"percentage damage caused to the plant, five point scale, LOLPE",Lolium perenne (LOLPE) [8],5 (5=80-100%)
CC#Cc1cc(C)c(C2C(=O)CC3(CC2=O)CN(C(=O)C2CC2)C3)c(OC)c1 [Compound 1.020],"percentage damage caused to the plant, five point scale, ECHCG",[1],5 (5=80-100%)
same,"percentage damage caused to the plant, five point scale, SETFA",Setaria faberi (SETFA) [2],5 (5=80-100%)
same,"percentage damage caused to the plant, five point scale, AVEFA",Avena fatua (AVEFA) [3],5 (5=80-100%)
same,"percentage damage caused to the plant, five point scale, LOLPE",Lolium perenne (LOLPE) [4],5 (5=80-100%)
same,"percentage damage caused to the plant, five point scale, ECHCG",[5],5 (5=80-100%)
same,"percentage damage caused to the plant, five point scale, SETFA",Setaria faberi (SETFA) [6],5 (5=80-100%)
same,"percentage damage caused to the plant, five point scale, AVEFA",Avena fatua (AVEFA) [7],5 (5=80-100%)
same,"percentage damage caused to the plant, five point scale, LOLPE",Lolium perenne (LOLPE) [8],5 (5=80-100%)
CC#Cc1cc(C)c(C2C(=O)CC3(CC2=O)CN(C(=O)c2ccccn2)C3)c(OC)c1 [Compound 1.016],"percentage damage caused to the plant, five point scale, ECHCG",[1],5 (5=80-100%)
same,"percentage damage caused to the plant, five point scale, SETFA",Setaria faberi (SETFA) [2],5 (5=80-100%)
same,"percentage damage caused to the plant, five point scale, AVEFA",Avena fatua (AVEFA) [3],5 (5=80-100%)
same,"percentage damage caused to the plant, five point scale, LOLPE",Lolium perenne (LOLPE) [4],5 (5=80-100%)
same,"percentage damage caused to the plant, five point scale, ECHCG",[5],5 (5=80-100%)
same,"percentage damage caused to the plant, five point scale, SETFA",Setaria faberi (SETFA) [6],5 (5=80-100%)
same,"percentage damage caused to the plant, five point scale, AVEFA",Avena fatua (AVEFA) [7],5 (5=80-100%)
same,"percentage damage caused to the plant, five point scale, LOLPE",Lolium perenne (LOLPE) [8],5 (5=80-100%)
"CC#Cc1cc(C)c(C2=C(OC(=O)OC)CC3(CC2=O)CN(C(C)=O)C3)c(C)c1 [Compound 2.001, 2-acetyl-7-(2,6-dimethyl-4-prop-1-ynyl-phenyl)-6-oxo-2-azaspiro[3.5]non-7-en-8-yl] methyl carbonate]","percentage damage caused to the plant, five point scale, ECHCG",[1],5 (5=80-100%)
same,"percentage damage caused to the plant, five point scale, SETFA",Setaria faberi (SETFA) [2],5 (5=80-100%)
same,"percentage damage caused to the plant, five point scale, AVEFA",Avena fatua (AVEFA) [3],5 (5=80-100%)
same,"percentage damage caused to the plant, five point scale, LOLPE",Lolium perenne (LOLPE) [4],5 (5=80-100%)
same,"percentage damage caused to the plant, five point scale, ECHCG",[5],5 (5=80-100%)
same,"percentage damage caused to the plant, five point scale, SETFA",Setaria faberi (SETFA) [6],5 (5=80-100%)
same,"percentage damage caused to the plant, five point scale, AVEFA",Avena fatua (AVEFA) [7],5 (5=80-100%)
same,"percentage damage caused to the plant, five point scale, LOLPE",Lolium perenne (LOLPE) [8],5 (5=80-100%)
CC#Cc1cc(C)c(C2C(=O)CC3(CC2=O)CN(C(=O)NC(=O)C(C)(C)C)C3)c(C)c1 [Compound 1.007],"percentage damage caused to the plant, five point scale, ECHCG",[1],5 (5=80-100%)
same,"percentage damage caused to the plant, five point scale, SETFA",Setaria faberi (SETFA) [2],5 (5=80-100%)
same,"percentage damage caused to the plant, five point scale, AVEFA",Avena fatua (AVEFA) [3],3 (3=40-59%)
same,"percentage damage caused to the plant, five point scale, LOLPE",Lolium perenne (LOLPE) [4],5 (5=80-100%)
same,"percentage damage caused to the plant, five point scale, ECHCG",[5],5 (5=80-100%)
same,"percentage damage caused to the plant, five point scale, SETFA",Setaria faberi (SETFA) [6],4 (4=60-79%)
same,"percentage damage caused to the plant, five point scale, AVEFA",Avena fatua (AVEFA) [7],4 (4=60-79%)
same,"percentage damage caused to the plant, five point scale, LOLPE",Lolium perenne (LOLPE) [8],5 (5=80-100%)
CC#Cc1cc(C)c(C2C(=O)CC3(CC2=O)CN(C(=O)NC(=O)C(C)(C)C)C3)c(OC)c1 [Compound 1.019],"percentage damage caused to the plant, five point scale, ECHCG",[1],5 (5=80-100%)
same,"percentage damage caused to the plant, five point scale, SETFA",Setaria faberi (SETFA) [2],4 (4=60-79%)
same,"percentage damage caused to the plant, five point scale, AVEFA",Avena fatua (AVEFA) [3],4 (4=60-79%)
same,"percentage damage caused to the plant, five point scale, LOLPE",Lolium perenne (LOLPE) [4],4 (4=60-79%)
same,"percentage damage caused to the plant, five point scale, ECHCG",[5],4 (4=60-79%)
same,"percentage damage caused to the plant, five point scale, SETFA",Setaria faberi (SETFA) [6],5 (5=80-100%)
same,"percentage damage caused to the plant, five point scale, AVEFA",Avena fatua (AVEFA) [7],5 (5=80-100%)
same,"percentage damage caused to the plant, five point scale, LOLPE",Lolium perenne (LOLPE) [8],5 (5=80-100%)
CC#Cc1cc(Cl)c(C2C(=O)CC3(CC2=O)CN(C(=O)C(F)F)C3)c(OC)c1 [Compound 1.193],"percentage damage caused to the plant, five point scale, ECHCG",[1],5 (5=80-100%)
same,"percentage damage caused to the plant, five point scale, SETFA",Setaria faberi (SETFA) [2],5 (5=80-100%)
same,"percentage damage caused to the plant, five point scale, AVEFA",Avena fatua (AVEFA) [3],5 (5=80-100%)
same,"percentage damage caused to the plant, five point scale, LOLPE",Lolium perenne (LOLPE) [4],5 (5=80-100%)
same,"percentage damage caused to the plant, five point scale, ECHCG",[5],5 (5=80-100%)
same,"percentage damage caused to the plant, five point scale, SETFA",Setaria faberi (SETFA) [6],5 (5=80-100%)
same,"percentage damage caused to the plant, five point scale, AVEFA",Avena fatua (AVEFA) [7],5 (5=80-100%)
same,"percentage damage caused to the plant, five point scale, LOLPE",Lolium perenne (LOLPE) [8],5 (5=80-100%)
CC#Cc1cc(C)c(C2C(=O)CC3(CC2=O)CN(C(=O)c2ccccn2)C3)c(C)c1 [Compound 1.004],"percentage damage caused to the plant, five point scale, ECHCG",[1],5 (5=80-100%)
same,"percentage damage caused to the plant, five point scale, SETFA",Setaria faberi (SETFA) [2],5 (5=80-100%)
same,"percentage damage caused to the plant, five point scale, AVEFA",Avena fatua (AVEFA) [3],5 (5=80-100%)
same,"percentage damage caused to the plant, five point scale, LOLPE",Lolium perenne (LOLPE) [4],5 (5=80-100%)
same,"percentage damage caused to the plant, five point scale, ECHCG",[5],5 (5=80-100%)
same,"percentage damage caused to the plant, five point scale, SETFA",Setaria faberi (SETFA) [6],5 (5=80-100%)
same,"percentage damage caused to the plant, five point scale, AVEFA",Avena fatua (AVEFA) [7],5 (5=80-100%)
same,"percentage damage caused to the plant, five point scale, LOLPE",Lolium perenne (LOLPE) [8],5 (5=80-100%)
